Data published in patent publication US20230058171A1, “NEW ORAL PHARMACEUTICAL COMPOSITION FOR CANCER THERAPY” (BOEHRINGER INGELHEIM INTERNATIONAL GMBH, priority 2021, published 2023).

How the values were obtained:
tumors = experiment: Trial 1403-0002 combination with ezabenlimab (and anti-LAG3-1): tumor response; type: in vivo, human
[1] = tested on: patients with advanced or metastatic solid tumors; experiment: Trial 1403-0001 Phase Ia dose escalation, Arm A (D1 q3w): adverse events; type: in vivo
Source text: Trial 1403-0001 was a first in human Phase Ia/Ib, open label, multicenter, dose-escalation study of the MDM2-antagonist of formula I in patients with advanced or metastatic solid tumors. The Phase Ia dose escalation part aimed to define the Maximum Tolerated Dose (MTD) and the Recommended Dose for Expansion (RDE) for the MDM2-antagonist of formula I based on safety and tolerability, pharmacokinetics, pharmacodynamics, and preliminary efficacy. The RDE will be further explored in the Phase Ib expansion part of the trial.
Fifty-four patients had been treated with the MDM2-antagonist of formula I in the Phase Ia dose escalation part of clinical trial 1403-0001. Twenty-nine patients were treated in Arm A (dosing regimen: dosing on Day 1 of a 21 days-cycle, D1 q3w) and twenty-five patients were treated in Arm B (dosing regimen: dosing on Day 1 and on Day 8 of a 28 days-cycle, D1 D8 q4w). Dose levels evaluated in Arm A were 10, 20, 30, 45, 50, 60, and 80 mg. Dose levels evaluated in Arm B (referring to the dose administered on Day 1 and Day 8) were 5, 10, 15, 20, 30, 45, and 60 mg.
During the on-treatment period, all 29 patients were reported with adverse events (AEs). […] A total of 27 patients (93.1%) were reported with at least 1 AE judged to be related to the MDM2-antagonist of formula I by investigators.

[2] = triple combination (11 treated)

Cc1c(C(=O)O)ccc2c3n(nc12)[C@@H]1[C@H](C3)N(CC2CC2)[C@@]2(C(=O)Nc3cc(Cl)ccc32)[C@H]1c1cccc(Cl)c1F [MDM2-antagonist of formula I, (2′S,3′S,3a'S,10a'S)-6-chloro-3′-(3-chloro-2-fluorophenyl)-1′-(cyclopropylmethyl)-6′-methyl-2-oxo-1,2,3′,3a′,10′,10a′-hexahydro-1′H-spiro[indole-3,2′-pyrrolo[2′,3′:4,5]pyrrolo[1,2-b]indazole]-7′-carboxylic acid]
patients with confirmed partial response (PR) (tumors; double combination with 240 mg ezabenlimab D1 q3w, nine evaluable patients): four
patients with confirmed partial response (PR) (tumors; double combination, 30 mg + 240 mg ezabenlimab D1 q3w): one
patients with unconfirmed PR (tumors; double combination, 30 mg + 240 mg ezabenlimab D1 q3w, adenocarcinoma): one
patients with confirmed partial response (PR) (tumors; double combination, 45 mg + 240 mg ezabenlimab D1 q3w): three
patients with stable disease (tumors; double combination, nine evaluable patients): Four
Confirmed partial response, % of patients (tumors; [2]): (9.1) %
Confirmed partial response, number of patients (tumors; [2]): 1
Disease control, % of patients (tumors; [2]): (72.5) %
Disease control, number of patients (tumors; [2]): 8
Progressive disease, % of patients (tumors; [2]): (18.2) %
Progressive disease, number of patients (tumors; [2]): 2
Stable disease, number of patients (tumors; [2]): 7
Unconfirmed partial response, % of patients (tumors; [2]): (9.1) %
Unconfirmed partial response, number of patients (tumors; [2]): 1
Partial Responses (PRs), number (tumors; triple combination, MDM2-amplified liposarcoma and MDM2-amplified urothelial carcinoma patient): 2
Serious AEs: Results in Death, % ([1]; Arm A D1 q3w, 10 mg): 0%
Subjects with maximum CTC Grade 5, % ([1]; Arm A D1 q3w, 10 mg): 0%
Serious AEs: Results in Death, % ([1]; Arm A D1 q3w, 20 mg): 0%
Subjects with maximum CTC Grade 5, % ([1]; Arm A D1 q3w, 20 mg): 0%
Serious AEs: Results in Death, % ([1]; Arm A D1 q3w, 30 mg): 0%
Subjects with AEs leading to dose reduction of trial drug, % ([1]; Arm A D1 q3w, 30 mg): 33.3%
Subjects with maximum CTC Grade 2, % ([1]; Arm A D1 q3w, 30 mg): 33.3%
Subjects with maximum CTC Grade 3, % ([1]; Arm A D1 q3w, 30 mg): 66.7%
Subjects with maximum CTC Grade 5, % ([1]; Arm A D1 q3w, 30 mg): 0%
Patients with Dose limiting toxicity, % ([1]; Arm A D1 q3w, 45 mg): 33.3%
Serious AEs: Results in Death, % ([1]; Arm A D1 q3w, 45 mg): 0%
Subjects with AEs leading to dose reduction of trial drug, % ([1]; Arm A D1 q3w, 45 mg): 33.3%
Subjects with maximum CTC Grade 3, % ([1]; Arm A D1 q3w, 45 mg): 33.3%
Subjects with maximum CTC Grade 5, % ([1]; Arm A D1 q3w, 45 mg): 0%
Serious AEs: Results in Death, % ([1]; Arm A D1 q3w, 50 mg): 0%
Subjects with maximum CTC Grade 5, % ([1]; Arm A D1 q3w, 50 mg): 0%
Serious AEs: Results in Death, % ([1]; Arm A D1 q3w, 60 mg): 0%
Subjects with maximum CTC Grade 3, % ([1]; Arm A D1 q3w, 60 mg): 71.4%
Subjects with maximum CTC Grade 5, % ([1]; Arm A D1 q3w, 60 mg): 0%
Patients with Dose limiting toxicity, % ([1]; Arm A D1 q3w, 80 mg): 66.7%
Serious AEs: Requires or Prolongs Hospitalization, % ([1]; Arm A D1 q3w, 80 mg): 33.3%
Serious AEs: Results in Death, % ([1]; Arm A D1 q3w, 80 mg): 0%
Subjects with maximum CTC Grade 2, % ([1]; Arm A D1 q3w, 80 mg): 33.3%
Subjects with maximum CTC Grade 4, % ([1]; Arm A D1 q3w, 80 mg): 66.7%
Subjects with maximum CTC Grade 5, % ([1]; Arm A D1 q3w, 80 mg): 0%
Subjects with serious AEs, % ([1]; Arm A D1 q3w, 80 mg): 33.3%
Serious AEs: Requires or Prolongs Hospitalization, % ([1]; Arm A D1 q3w, Total): 31.0%
Serious AEs: Results in Death, % ([1]; Arm A D1 q3w, Total): 0%
Subjects with AEs leading to Discontinuation of trial drug, % ([1]; Arm A D1 q3w, Total): 6.9%
Subjects with maximum CTC Grade 5, % ([1]; Arm A D1 q3w, Total): 0%
drug-related AE diarrhea, patients ([1]; Arm A, all 29 patients): 27.6%
drug-related AE fatigue, patients ([1]; Arm A, all 29 patients): 41.1%
drug-related AE nausea, patients ([1]; Arm A, all 29 patients): 72.4%
drug-related AE platelet count decreased, patients ([1]; Arm A, all 29 patients): 37.9%
drug-related AE vomiting, patients ([1]; Arm A, all 29 patients): 41.1%
drug-related AE white blood cell count decreased, patients ([1]; Arm A, all 29 patients): 27.6%
fatal AEs ([1]; Arm A, all 29 patients): No fatal AEs were reported
patients with DLTs during the MTD evaluation period (cycle 1) ([1]; Arm A, all 29 patients): 17.2%
AE anemia, patients ([1]; human, in vivo): 41.4%
AE back pain, patients ([1]; human, in vivo): 20.7%
AE decreased appetite, patients ([1]; human, in vivo): 41.4%
AE diarrhea, patients ([1]; human, in vivo): 34.5%
AE fatigue, patients ([1]; human, in vivo): 51.7%
AE nausea, patients ([1]; human, in vivo): 82.8%
AE platelet count decreased, patients ([1]; human, in vivo): 37.9%
AE vomiting, patients ([1]; human, in vivo): 48.3%
AEs leading to Discontinuation: Other adverse event, % ([1]; human, in vivo): 3.4%
Grade 3 AE platelet count decreased, patients ([1]; human, in vivo): 13.8%
Grade 4 AE neutrophil count decreased, patients ([1]; human, in vivo): 10.3%
SAE platelet count decreased, patients ([1]; human, in vivo): 6.9%
Serious AEs: Cogenital Anomaly or Birth Defect, % ([1]; human, in vivo): 0%
Serious AEs: Is Life Threatening, % ([1]; human, in vivo): 0%
Serious AEs: Other Medically Important Serious Event, % ([1]; human, in vivo): 3.4%
Serious AEs: Persists of Signif. Disability/Incapacity, % ([1]; human, in vivo): 0%
Subjects with any AE, % ([1]; human, in vivo): 100%
Subjects with investigator defined drug-related AEs, % ([1]; human, in vivo): 93.1%
Subjects with maximum CTC Grade 1, % ([1]; human, in vivo): 3.4%
Subjects with maximum CTC Grade 2, % ([1]; human, in vivo): 27.6%
Subjects with maximum CTC Grade 3, % ([1]; human, in vivo): 51.7%
Subjects with maximum CTC Grade 4, % ([1]; human, in vivo): 17.2%
Subjects with serious AEs, % ([1]; human, in vivo): 31.0%
dose reduction due to enterocolitis, patients ([1]; human, in vivo): 3.4%
dose reduction due to nausea, patients ([1]; human, in vivo): 6.9%
dose reduction due to neutropenia and/or thrombocytopenia, patients ([1]; human, in vivo): 20.7%
drug-related AE anemia, patients ([1]; human, in vivo): 24.1%
drug-related AE decreased appetite, patients ([1]; human, in vivo): 34.5%
